Measured values taken from patent US10343992B2, “1-cyano-pyrrolidine compounds as USP30 inhibitors” (MISSION THERAPEUTICS LIMITED, priority 2015, dated 2019).

Biological target: USP30 (Homo sapiens (Human), UniProt Q70CQ3)
Assay: USP30 biochemical FP or FI IC50 assay
Details: read-out: IC50 range
How it was run: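 Human USP30 preincubated 30 min at room temperature with compound (8-point series, 100 µM top final) in Tris pH 7.5, Tween 20, BSA, 5 mM β-mercaptoethanol, in duplicate. FP format: 50 nM TAMRA-peptide–isopeptide-ubiquitin substrate, ex 540/em 590. FI format: 100 nM ubiquitin-rhodamine 110, ex 487/em 535. Both read at 0 and after 2 h at room temperature.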

Sequence of USP30 (Q70CQ3 57-517): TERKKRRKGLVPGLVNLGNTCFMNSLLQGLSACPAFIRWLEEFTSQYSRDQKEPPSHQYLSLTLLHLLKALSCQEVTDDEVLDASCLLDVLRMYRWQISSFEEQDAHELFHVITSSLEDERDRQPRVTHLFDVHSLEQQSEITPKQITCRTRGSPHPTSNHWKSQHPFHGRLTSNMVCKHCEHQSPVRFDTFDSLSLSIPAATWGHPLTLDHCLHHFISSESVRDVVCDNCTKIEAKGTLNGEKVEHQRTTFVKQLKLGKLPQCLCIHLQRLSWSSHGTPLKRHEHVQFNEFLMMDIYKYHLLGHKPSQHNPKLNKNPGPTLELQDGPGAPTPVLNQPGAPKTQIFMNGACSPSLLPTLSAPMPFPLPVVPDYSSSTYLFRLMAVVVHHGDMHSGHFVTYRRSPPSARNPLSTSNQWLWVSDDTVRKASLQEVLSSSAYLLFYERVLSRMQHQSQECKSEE

Row | Compound | IC50
1 | N#Cc1cc(F)c(NC(=O)N2CC[C@@H]3CN(C#N)C[C@@H]32)cc1F [Example 199, (3aR,6aR)-5-cyano-N-(4-cyano-2,5-difluorophenyl)hexahydropyrrolo[3,4-b]pyrrole-1(2H)-carboxamide] | 100 to 1000 nM
2 | N#CN1C[C@H]2CCN(C(=O)Nc3cc(C(F)(F)F)ccc3F)[C@H]2C1 [Example 201, (3aR,6aR)-5-cyano-N-(2-fluoro-5-(trifluoromethyl)phenyl)hexahydro-pyrrolo[3,4-b]pyrrole-1(2H)-carboxamide] | < 100 nM
3 | N#CN1C[C@H]2CCN(C(=O)Nc3ccc(-c4ccccc4)cn3)[C@H]2C1 [Example 202, (3aR,6aR)-5-cyano-N-(5-phenyl-pyridin-2-yl)hexahydropyrrolo[3,4-b]pyrrole-1(2H)-carboxamide] | < 100 nM
4 | N#CN1C[C@H]2CCN(C(=O)Nc3ccc(C(F)(F)F)cc3)[C@H]2C1 [Example 203, (3aR,6aR)-5-cyano-N-(4-(trifluoromethyl)-phenyl)-hexahydropyrrolo[3,4-b]pyrrole-1(2H)-carboxamide] | < 100 nM
5 | CCN(C(=O)Nc1ccc(C(F)(F)F)cc1)[C@@H]1CCN(C#N)C1 [Example 204, (R)-1-(1-cyanopyrrolidin-3-yl)-1-ethyl-3-(4-(trifluoromethyl)phenyl)urea] | < 100 nM
6 | COCCN(C(=O)Nc1ccc(C(F)(F)F)cc1)C1CCN(C#N)C1 (stereo not shown) [Example 205, 1-(1-cyanopyrrolidin-3-yl)-1-(2-methoxyethyl)-3-(4-(trifluoromethyl)phenyl)urea] | 100 to 1000 nM
7 | CCN(C(=O)c1ccc(-c2cnn(C)c2)c(F)c1)[C@@H]1CCN(C#N)C1 [Example 206, (R)-N-(1-cyanopyrrolidin-3-yl)-N-ethyl-3-fluoro-4-(1-methyl-1H-pyrazol-4-yl)benzamide] | 100 to 1000 nM
8 | CCN(C(=O)N1CC(c2ccccc2)C1)[C@@H]1CCN(C#N)C1 [Example 207, (R)-N-(1-cyanopyrrolidin-3-yl)-N-ethyl-3-phenylazetidine-1-carboxamide] | 100 to 1000 nM
9 | N#CN1CC[C@@H](N2CCN(c3nc(-c4ccccc4)cs3)C2=O)C1 [Example 208, (R)-3-(2-oxo-3-(4-phenylthiazol-2-yl)imidazolidin-1-yl)pyrrolidine-1-carbonitrile] | 100 to 1000 nM
10 | N#CN1CC[C@@H](N2CCCN(c3nc(-c4ccccc4)cs3)C2=O)C1 [Example 209, (R)-3-(2-oxo-3-(4-phenylthiazol-2-yl)tetrahydropyrimidin-1(2 H)-yl)pyrrolidine-1-carbonitrile] | 100 to 1000 nM
11 | N#CN1CC[C@@H](N2CCN(c3cccc(N4CCOCC4)c3)C2=O)C1 [Example 210, (R)-3-(3-(3-morpholinophenyl)-2-oxoimidazolidin-1-yl)pyrrolidine-1-carbonitrile] | 100 to 1000 nM
12 | N#CN1CC[C@@H](NC(=O)c2ccc3c(c2)OCCN3c2ncccn2)C1 [Example 211, (R)-N-(1-cyanopyrrolidin-3-yl)-4-(pyrimidin-2-yl)-3,4-dihydro-2H-benzo[b][1, 4]oxazine-7-carboxamide] | 100 to 1000 nM
13 | N#CN1CC[C@@H](NC(=O)c2ccc3c(c2)OCCN3c2nccc(C3CC3)n2)C1 [Example 212, (R)-N-(1-cyanopyrrolidin-3-yl)-4-(4-cyclopropylpyrimidin-2-yl)-3,4-dihydro-2H-benzo[b][1, 4]oxazine-7-carboxamide] | < 100 nM
14 | N#CN1CC[C@@H](NC(=O)c2ccc(Nc3nccc(C4CC4)n3)c(F)c2)C1 [Example 213, (R)-N-(1-cyanopyrrolidin-3-yl)-4-((4-cyclopropylpyrimidin-2-yl)amino)-3-fluorobenzamide] | < 100 nM
15 | N#CN1CC[C@@H](NC(=O)c2ccc(Nc3nccc(C4CC4)n3)c(F)c2F)C1 [Example 214, (R)-N-(1-cyanopyrrolidin-3-yl)-4-((4-cyclopropylpyrimidin-2-yl)amino)-2,3-difluorobenzamide] | < 100 nM
16 | CC(C)C(=O)N(C)c1ccnc(C(=O)N[C@@H]2CCN(C#N)C2)c1 [Example 215, (R)-N-(1-cyanopyrrolidin-3-yl)-4-(N-methylisobutyramido)picolinamide] | 100 to 1000 nM
17 | N#CN1CC[C@@H](NC(=O)c2ccc(-c3ccccn3)cn2)C1 [Example 216, (R)-N-(1-cyanopyrrolidin-3-yl)-[2, 3′-bipyridine]-6′-carboxamide] | 100 to 1000 nM
18 | N#CN1CC[C@@H](NC(=O)c2cc(-c3ccccn3)ccn2)C1 [Example 217, (R)-N-(1-cyanopyrrolidin-3-yl)-[2, 4′-bipyridine]-2′-carboxamide] | 100 to 1000 nM
19 | N#CN1CC[C@@H](NC(=O)c2cc(-c3ccc(C(F)(F)F)cc3)no2)C1 [Example 219, (R)-N-(1-cyanopyrrolidin-3-yl)-3-(4-(trifluoromethyl)phenyl)isoxazole-5-carboxamide] | 100 to 1000 nM
20 | COc1ccc(-c2cc(C(=O)N[C@@H]3CCN(C#N)C3)on2)cc1OC [Example 220, (R)-N-(1-cyanopyrrolidin-3-yl)-3-(3,4-dimethoxyphenyl)isoxazole-5-carboxamide] | 100 to 1000 nM

Row | Compound | IC50
21 | COc1cccc(-c2cc(C(=O)N[C@@H]3CCN(C#N)C3)on2)c1 [Example 221, (R)-N-(1-cyanopyrrolidin-3-yl)-3-(3-methoxyphenyl)isoxazole-5-carboxamide] | < 100 nM
22 | N#CN1CC[C@@H](NC(=O)C2CCN(c3ccccc3)C2)C1 (stereo partly drawn) [Example 222, N-((R)-1-cyanopyrrolidin-3-yl)-1-phenylpyrrolidine-3-carboxamide] | 100 to 1000 nM
23 | Cc1cn(-c2ccc(C(=O)N[C@@H]3CCN(C#N)C3)cc2F)cn1 [Example 223, (R)-N-(1-cyanopyrrolidin-3-yl)-3-fluoro-4-(4-methyl-1H-imidazol-1-yl)benzamide] | < 100 nM
24 | Cc1cn(-c2ccc(C(=O)N(C)[C@@H]3CCN(C#N)C3)cc2F)cn1 [Example 224, (R)-N-(1-cyanopyrrolidin-3-yl)-3-fluoro-N-methyl-4-(4-methyl-1H-imidazol-1-yl)benzamide] | 100 to 1000 nM
25 | N#CN1CC[C@@H](NC(=O)N2CCC(c3ccccn3)C2)C1 (stereo partly drawn) [Example 225, N-((R)-1-cyanopyrrolidin-3-yl)-3-(pyridin-2-yl)pyrrolidine-1-carboxamide] | 1000 to 10000 nM
26 | Cn1cc(C2CCN(C(=O)N[C@@H]3CCN(C#N)C3)C2)cn1 (stereo partly drawn) [Example 226, N-((R)-1-cyanopyrrolidin-3-yl)-3-(1-methyl-1H-pyrazol-4-yl)pyrrolidine-1-carboxamide] | 1000 to 10000 nM
27 | CN(c1ccc(C(=O)N[C@@H]2CCN(C#N)C2)c(F)c1)S(=O)(=O)c1ccccc1 [Example 228, (R)-N-(1-cyanopyrrolidin-3-yl)-2-fluoro-4-(N-methylphenylsulfonamido)benzamide] | 100 to 1000 nM
28 | Cn1cc(-c2ccc3cc(C(=O)N[C@@H]4CCN(C#N)C4)n(C)c3c2)cn1 [Example 229, (R)-N-(1-cyanopyrrolidin-3-yl)-1-methyl-6-(1-methyl-1H-pyrazol-4-yl)-1H-indole-2-carboxamide] | 100 to 1000 nM
29 | CN(C(=O)Nc1ccnc(N2Cc3ccccc3C2)c1)[C@@H]1CCN(C#N)C1 [Example 231, (R)-1-(1-cyanopyrrolidin-3-yl)-3-(2-(isoindolin-2-yl)pyridin-4-yl)-1-methylurea] | 100 to 1000 nM
30 | Cn1cc(-c2ccc3c(c2)c(F)c(C(=O)N[C@@H]2CCN(C#N)C2)n3C)cn1 [Example 232, (R)-N-(1-cyanopyrrolidin-3-yl)-3-fluoro-1-methyl-5-(1-methyl-1H-pyrazol-4-yl)-1H-indole-2-carboxamide] | < 100 nM
31 | Cn1cc(-c2ccn3c(C(=O)N[C@@H]4CCN(C#N)C4)ncc3c2)cn1 [Example 233, (R)-N-(1-cyanopyrrolidin-3-yl)-7-(1-methyl-1H-pyrazol-4-yl)imidazo[1,5-a]pyridine-3-carboxamide] | 100 to 1000 nM
32 | N#CN1CC[C@@H](NC(=O)N2CC(c3ccn(-c4ccccc4)n3)C2)C1 [Example 234, (R)-N-(1-cyanopyrrolidin-3-yl)-3-(1-phenyl-1H-pyrazol-3-yl)azetidine-1-carboxamide] | < 100 nM
33 | N#CN1CC[C@@H](NC(=O)N2CC(c3ccn(-c4cnccn4)n3)C2)C1 [Example 235, (R)-N-(1-cyanopyrrolidin-3-yl)-3-(1-(pyrazin-2-yl)-1H-pyrazol-3-yl)azetidine-1-carboxamide] | 100 to 1000 nM
34 | N#CN1CC[C@@H](NC(=O)N2CC(c3ccnc(-c4ccccc4)n3)C2)C1 [Example 236, (R)-N-(1-cyanopyrrolidin-3-yl)-3-(2-phenylpyrimidin-4-yl)azetidine-1-carboxamide] | 100 to 1000 nM
35 | N#CN1CC[C@@H](NC(=O)N2CC(c3ccnc(-c4ccc(Cl)cc4)n3)C2)C1 [Example 237, (R)-3-(2-(4-chlorophenyl)pyrimidin-4-yl)-N-(1-cyanopyrrolidin-3-yl)azetidine-1-carboxamide] | < 100 nM
36 | N#CN1CC[C@@H](NC(=O)N2CC(OCc3ccccc3)(c3ccccc3)C2)C1 [Example 238, (R)-3-(benzyloxy)-N-(1-cyanopyrrolidin-3-yl)-3-phenylazetidine-1-carboxamide] | < 100 nM
37 | N#CN1CC[C@@H](NC(=O)c2ccc3c(c2)CCN3c2nccc(C3CC3)n2)C1 [Example 239, (R)-N-(1-cyanopyrrolidin-3-yl)-1-(4-cyclopropylpyrimidin-2-yl)indoline-5-carboxamide] | < 100 nM
38 | CN(C(=O)c1ccc2c(c1)CCN2c1nccc(C2CC2)n1)[C@@H]1CCN(C#N)C1 [Example 240, (R)-N-(1-cyanopyrrolidin-3-yl)-1-(4-cyclopropylpyrimidin-2-yl)-N-methylindoline-5-carboxamide] | < 100 nM
39 | Cc1cc(-c2cccc(NC(=O)N3CC[C@@H]4CN(C#N)C[C@@H]43)c2)ccn1 [Example 241, (3aR,6aR)-5-cyano-N-(3-(2-methylpyridin-4-yl)phenyl)hexahydropyrrolo[3,4-b]pyrrole-1(2H)-carboxamide] | < 100 nM
40 | Cc1cc(-c2ccc(NC(=O)N3CC[C@@H]4CN(C#N)C[C@@H]43)cc2)ccn1 [Example 242, (3aR,6aR)-5-cyano-N-(4-(2-methylpyridin-4-yl)phenyl)hexahydropyrrolo[3,4-b]pyrrole-1(2H)-carboxamide] | < 100 nM
